{
  "source": "patent US8158640B2",
  "about": "“Tetrahydroquinoline derivatives and a process for preparing the same” (Mitsubishi Tanabe Pharma Corporation, priority 2005, dated 2012)",
  "data": [
    {"molecular_target": "T1, CETP (Homo sapiens, UniProt P11597)", "T1 construct": "from tissue; host or cells: plasma from a healthy volunteer", "T1 sequence (P11597 18-493)": "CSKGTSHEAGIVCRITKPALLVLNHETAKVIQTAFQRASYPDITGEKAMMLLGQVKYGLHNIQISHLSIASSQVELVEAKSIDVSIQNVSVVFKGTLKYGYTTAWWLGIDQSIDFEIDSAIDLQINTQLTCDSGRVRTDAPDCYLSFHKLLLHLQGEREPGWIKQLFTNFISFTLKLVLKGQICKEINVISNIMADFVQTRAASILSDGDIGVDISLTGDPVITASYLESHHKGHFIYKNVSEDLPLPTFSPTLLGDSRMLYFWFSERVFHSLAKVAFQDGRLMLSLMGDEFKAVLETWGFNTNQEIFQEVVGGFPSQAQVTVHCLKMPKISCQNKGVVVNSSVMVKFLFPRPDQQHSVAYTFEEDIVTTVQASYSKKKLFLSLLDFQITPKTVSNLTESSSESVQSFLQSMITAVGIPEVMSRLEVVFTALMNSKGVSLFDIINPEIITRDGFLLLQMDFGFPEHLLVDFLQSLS", "assay": "Inhibitory activity against CETP in vitro (fluorescent BODIPY-CE transfer, donor/acceptor microemulsion, human plasma)", "format": "biochemical", "settings": "plasma from a healthy volunteer diluted to 0.64%; preincubation with test solution 37° C. 24 hours, then 3 hours with donor/acceptor microemulsion; fluorescence Ex.550 nm/Em.600 nm; read-out: IC50 (inhibition of CETP activity)", "description": "The inhibitory activity of the compounds of the present invention against CETP was tested in this experiment.\nA solution of 1-Palmitoyl-2-oleoyl-sn-glycero-3-phosphocholine (3.5 mg), cholesteryl oleate (3 mg) and triolein (0.7 mg) in chloroform was mixed and lipid was air-dried under nitrogen gas to remove solvent. 1,4-Dioxane (0.25 ml) was then added and the mixture was stirred for dissolution. The resultant lipid solution (0.2 ml) was slowly injected under the surface of Tris-saline-EDTA(TSE) buffer solution [10 mM Tris/HCl (pH 7.4), 0.15M NaCl, 2 mM EDTA] (10 ml) with Hamilton syringe, while sonicating in ice-bath. After 1-hour-sonication in ice-bath, the solution was stored at 4° C.\nA solution of egg PC (phosphatidylcholine) (0.33 mg) and BODIPY-CE (0.62 mg) in chloroform was mixed. After removing solvent by air-drying lipid under nitrogen gas, TSE buffer solution (3 ml) was added and the solution was sonicated in ice-bath. This solution was filtered to sterilize through 0.22 μm filter and stored at 4° C.\nA test solution was prepared using dimethyl sulfoxide as a solvent. Plasma from a healthy volunteer was diluted to 0.64% with TSE buffer, and to the resultant plasma solution (187 μl) was added a test solution (3 μl) or the solvent alone followed by incubation at 37° C. for 24 hours. After addition of TSE buffer solution (10 μl) containing 5% donor micro-emulsion and 5% acceptor microemulsion, the mixture was incubated at 37° C. for 3 hours. […] CETP activity was defined as the difference between the measurements obtained before incubation and after incubation. The decreasing rate of the difference in the sample was defined as the inhibition rate of CETP activity. IC50 for each sample was calculated from the inhibition rate of CETP activity.", "units": {"IC50": "nM"}, "values": [
      {"compound": "CCOC(=O)N1c2ccc(C(F)(F)F)cc2[C@@H](N(Cc2cc(C(F)(F)F)cc(C(F)(F)F)c2)c2ncc(N(C)CCC(=O)O)cn2)C[C@H]1CC", "note": "[Example 127]", "IC50": 0.89},
      {"compound": "CCOC(=O)N1c2ccc(C(F)(F)F)cc2C(N(Cc2cc(C(F)(F)F)cc(C(F)(F)F)c2)c2ncc(OCCCCC(=O)O)cn2)CC1CC", "note": "(stereo not drawn) [Example 198]", "IC50": 0.66},
      {"compound": "CCOC(=O)N1c2ccc(C(F)(F)F)cc2[C@@H](N(Cc2cc(C(F)(F)F)cc(C(F)(F)F)c2)c2ccc(OCCCC(=O)O)cn2)C[C@H]1CC", "note": "[Example 231, (2R,4S)-4-{[3,5-bis(trifluoromethyl)benzyl]-[5-(3-carboxypropoxy)pyridin-2-yl]}amino-2-ethyl-6-trifluoromethyl-3,4-dihydro-2H-quinoline-1-carboxylic acid ethyl ester]", "IC50": 0.53},
      {"compound": "CCOC(=O)N1c2ccc(C(F)(F)F)cc2[C@@H](N(Cc2cc(C#N)cc(C(F)(F)F)c2)c2ncc(N3CCC(C(=O)O)CC3)cn2)C[C@H]1CC", "note": "[Example 235, (2R,4S)-4-{[5-(4-carboxypiperidin-1-yl)pyrimidin-2-yl]-(3-cyano-5-trifluoromethylbenzyl)}amino-2-ethyl-6-trifluoromethyl-3,4-dihydro-2H-quinoline-1-carboxylic acid ethyl ester]", "IC50": 2.7},
      {"compound": "(2R*,4S*)-4-{[3,5-bis(trifluoromethyl)benzyl]-[(5-morpholin-4-yl)pyrimidin-2-yl]}amino-2-ethyl-6-trifluoromethyl-3,4-dihydro-2H-quinoline-1-carboxylic acid 2-hydroxyethyl ester [Example 174]", "IC50": 0.23},
      {"compound": "(2R,4S)-4-{[3,5-bis(trifluoromethyl)-benzyl]-(5-carboxypyrimidin-2-yl)}amino-2-ethyl-6-trifluoromethyl-3,4-dihydro-2H-quinoline-1-carboxylic acid ethyl ester [Example 16]", "IC50": 4.2},
      {"compound": "(2R,4S)-4-{[3,5-bis(trifluoromethyl)benzyl]-[5-(2-methoxyethoxy)pyrimidin-2-yl]}amino-2-ethyl-6-trifluoromethyl-3,4-dihydro-2H-quinoline-1-carboxylic acid 2-carboxyethyl ester [Example 291]", "IC50": 0.32},
      {"compound": "(2R,4S)-4-{[3,5-bis(trifluoromethyl)benzyl]-[5-(morpholin-4-yl)-pyrimidin-2-yl]}amino-2-ethyl-6-trifluoromethyl-3,4-dihydro-2H-quinoline-1-carboxylic acid ethyl ester [Example 1]", "IC50": 0.17},
      {"compound": "(2R,4S)-4-{[3,5-bis(trifluoromethyl)benzyl]-[5-(morpholin-4-yl)pyrimidin-2-yl]}amino-2-ethyl-6-trifluoromethyl-3,4-dihydro-2H-quinoline-1-carboxylic acid 5-carboxypentyl ester [Example 275]", "IC50": 0.18}
    ]}
  ]
}
